Data on ten molecules can be found in patent publication US11136601B2, “Conversion of S-lignin compounds to useful intermediates” (Alliance for Sustainable Energy, LLC, priority 2018, dated 2021).

Series [1] has as its target T1, VanAB (vanillate demethylase; purified VanA and VanB subunits) (Pseudomonas putida, UniProt Q88GI6). The experiment in a line: VanAB in vitro enzymatic assay (kinetics and specific activity, NADPH consumption at 340 nm). The following applies: for VanAB specific activity: 100 μM substrate, pH 7.5; for VanAB specific activity / Kcat: 100 μM NADPH; for Kcat: Michaelis-Menten kinetics, 20 mM Tris-HCl pH 7.5. The procedure:
VanAB activity was also tested towards vanillate analogous substrates such as vanillin, ferulic acid, sinapinic acid, methyl vanillate, ethyl vanillate, and guaiacol.
(§1) Activity assay were followed by cofactor NADPH consumption monitored spectrophotometrically at 340 nm.

In series [2] the test system is P. putida KT2440 wild-type. The experiment in a line: Toxicity assessment of S-lignin derived monomers, growth (OD600) of wild-type strain. It is filed as cell-based, Pseudomonas putida. The following applies: wild-type KT2440, M9 minimal media with 20 mM glucose. The source says: (§2) FIG. 9 illustrates: Panel A. Wild-type P. putida KT24401 and Panel B. P. putida CJ486 (second copy vanAB overexpressed in genome), both according to some embodiments of the present disclosure. […] Cultures were sampled periodically to evaluate growth by OD600 and metabolite concentrations in the media using HPLC. Each point represents the average of two measurements with error bars representing their range.
(§3) FIG. 10 illustrates: Panel A. Wild-type P. putida KT2440; and Panel B. P. putida CJ486 (second copy vanAB overexpressed in genome), both according to some embodiments of the present disclosure. Cells were grown in M9 minimal medium containing 20 mM glucose and various concentrations of SAL. Cultures were sampled periodically to evaluate growth by OD600 and metabolite concentrations in the media using HPLC. Each point represents the average of two measurements with error bars representing their range.
(§4) FIG. 11 illustrates: Panel A. Wild-type P. putida KT2440; and Panel B. P. putida CJ486 (second copy vanAB overexpressed in genome), both according to some embodiments of the present disclosure. […] Cultures were sampled periodically to evaluate growth by OD600 and metabolite concentrations in the media using HPLC. Each point represents the average of two measurements with error bars representing their range.
(§5) To evaluate this, the engineered strain CJ486 and wild-type strain were grown in M9 minimal media containing 20 mM glucose and various concentrations of the S-lignin monomers.
(§6) Strains were cultivated overnight in LB medium, washed once with 1×M9 medium (6.78 g/L disodium phosphate, 3 g/L monopotassium phosphate, 0.5 g/L NaCl, 1 g/L NH4Cl, 2 mM MgSO4, 100 μM CaCl2), and 18 μM FeSO4, pH 7.0) and used to inoculate 125 mL baffled flasks containing M9 minimal media supplemented with various concentrations of S-lignin monomers (SA, 3-MGA or syringaldehyde (SAL), stock solution dissolved in 2% DMSO) and 20 mM glucose in some cases, to an optical density of 0.1 and incubated shaking at 225 rpm, 30° C. Cultures were sampled periodically by removing 1 mL that was used to measure the OD600 using a spectrophotometer (DU640 Beckman Coulter). In the case of 3-MGA provided to wild-type strain KT2440, SN166 and SN175, the reaction was downscaled to 50 mL baffled flasks containing 10 mL minimal media and the experiment was performed in duplicate.

Series [3] has as its system P. putida CJ486 (second copy vanAB overexpressed in genome). The experiment in a line: Toxicity assessment of S-lignin derived monomers, growth (OD600) of engineered strain CJ486. Type of series: cell-based, Pseudomonas putida. The following applies: strain CJ486, M9 minimal media with 20 mM glucose.
From the text: as §2, §3, §4, §5, §6

For series [4], the target named is T1, VanAB (vanillate demethylase; purified VanA and VanB subunits). Description: VanAB in vitro time course of substrate consumption and product formation (HPLC). It is filed as biochemical, P. putida KT2440. The following applies: 30 minutes time course, 100 μM substrate, VanAB 1.3 μM, room temperature. The procedure:
FIG. 13 illustrates time course of VA consumption/PCA production and SA consumption/3-MGA production, according to some embodiments of the present disclosure. VanAB (1.3 μM) was incubated with 100 μM VA or SA at room temperature, in the presence of 0.5 μM NADPH. Results are an average of at least two experiments.
FIG. 14 illustrates time-course of 3MGA consumption and GA formation, according to some embodiments of the present disclosure.
as §1
Metabolites analysis: Samples from the in vivo experiments were centrifuged to remove the cells and the supernatants were filtered through a 0.2 μm syringe filter and metabolite concentrations were analyzed on an Agilent 1100 series HPLC equipped with Phenominex Rezex™ RFQ-Fast Acid H^+ (8%), LC Column, a diode array detector, and refractive index detector and a 0.01 N H2SO4 mobile phase. The products were identified by comparing the retention times and spectral profiles with pure compounds. Shake flask experiments were performed in triplicate and the standard deviation of the triplicate measurement were calculated using the following equation: in which x is each value in a sample, x is the average of the values, and n is the number of values. The same method was employed to analyze the metabolites from the in vitro reaction. PDC compounds was analyzed and quantified by ^1H NMR spectrum. […], of fermentation broth was diluted in 400 μL of deuterium oxide (Isotope Laboratories Inc.) and 50 μL of deuterium oxide containing known mass of the internal standard succinic acid.

Substrate in series [5]: COc1cc(C(=O)O)ccc1O
The experiment in a line: purified protein, by the assay type. The note with it: other: apparent constant (substrate inhibition kinetics); NADPH measured in the presence of VA; pH 7.5; 30.0 °C.

Substrate in series [6]: COc1cc(C(=O)O)cc(OC)c1O
Description: purified protein, by the assay type. The note with it: other: Michaelis-Menten kinetics, 100 μM NADPH, 20 mM Tris-HCl pH 7.5, 30.0 °C.

The mark [7] stands for this setting: apparent constant (substrate inhibition kinetics), NADPH measured in the presence of VA.

T1 sequence (Q88GI5 entry or part of it, one chain of several): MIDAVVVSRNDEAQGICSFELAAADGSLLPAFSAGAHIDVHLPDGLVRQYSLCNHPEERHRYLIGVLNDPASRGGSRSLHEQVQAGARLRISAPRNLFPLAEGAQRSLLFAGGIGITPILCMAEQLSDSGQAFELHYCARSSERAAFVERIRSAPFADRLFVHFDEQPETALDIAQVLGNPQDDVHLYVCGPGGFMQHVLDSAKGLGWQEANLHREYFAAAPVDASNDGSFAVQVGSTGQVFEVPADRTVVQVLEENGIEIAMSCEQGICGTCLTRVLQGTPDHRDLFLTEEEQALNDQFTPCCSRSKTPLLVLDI

Consider `COc1cc(C(=O)O)cc(O)c1O` [3-MGA, 3-O-methyl gallate], for which, in series [1], the VanAB specific activity came out at 264 ± 86 U/mg and the Kcat worked out at 0.435 ± 0.0467 s⁻¹. Moreover, the Kcat in series [1] (listed as 3MGA) came out at 0.435 ± 0.0467 s⁻¹.

In the case of `CCOC(=O)c1ccc(O)c(OC)c1` [Ethylvanillate, ethyl vanillate], the figures for the VanAB specific activity in series [1] and in series [1] (listed as ethyl vanillate) were 100 ± 27 U/mg and 100±27 U/mg, respectively.

In the case of `O=C(O)c1cc(O)c(O)c(O)c1` [Gallate, gallic acid], in series [2], the “concentration at which growth was completely inhibited (no growth)” value worked out at 50000 µM and the “highest concentration tolerated / that allowed growth” value came to 20 mM. For the same molecule, in series [3], the “concentration at which growth was completely inhibited (no growth)” value was 50000 µM and the “highest concentration tolerated / that allowed growth” value came to 20 mM.

`COc1ccccc1O` [Guieicol, guaiacol]: the VanAB specific activity was 188 ± 16 U/mg in series [1] and 188±16 U/mg in series [1] (listed as guaiacol).

For the molecule `NC(=O)C1=CN([C@@H]2O[C@H](COP(=O)(O)OP(=O)(O)OC[C@H]3O[C@@H](n4cnc5c(N)ncnc54)[C@H](OP(=O)(O)O)[C@@H]3O)[C@@H](O)[C@H]2O)C=CC1` [NADPH, reference compound], in series [1] (setting [7]), the KMapp was determined as 26.7 ± 3.7 µM and the “Kcat^app” value was found to be 0.045 ± 0.0183 s⁻¹. The Ki in series [1] (read-out: Ki (substrate inhibition), substrate inhibition kinetics, NADPH-dependent inhibition measured in the presence of VA) is 25.3 ± 7.4 µM.

With `COc1cc(C=O)cc(OC)c1O` [SAL, syringaldehyde], the “concentration at which growth was completely inhibited (no growth)” value in series [2] and in series [3] was 50000 µM throughout. Besides, the “highest concentration tolerated / that allowed growth” value in series [2] and in series [3] was 20 mM in each case.

Take `COc1cc(C(=O)O)cc(OC)c1O` [Syringate, syringic acid]: the “highest concentration tolerated / that allowed growth” value in series [2] is given as “at least 120 mM”. Moreover, the VanAB specific activity in series [1] amounted to 704 ± 103 U/mg. The same molecule registered a Kcat in series [1] (listed as SA) of 1.13 ± 0.0683 s⁻¹. In series [4], the “product formed (protocatechuate from VA; 3-MGA from SA)” value was 9 µM and the residual substrate concentration amounted to 70 µM. For the same molecule, the “highest concentration tolerated / that allowed growth” value in series [3] is listed as “at least 120 mM”.

Take `COc1cc(C(=O)O)ccc1O` [Vanillate, vanillate]: the VanAB specific activity in series [1] is listed as 403 ± 59 U/mg. In addition, in series [4], the “product formed (protocatechuate from VA; 3-MGA from SA)” value stood at 47 µM and the “substrate converted (metabolized)” value stood at 58 µM.

For `COc1cc(C=O)ccc1O` [Vanillin, vanillin], the VanAB specific activity in series [1] stood at 49 ± 18 U/mg; in series [1] (listed as vanillin), 49±18 U/mg. In series [1] (VanAB specific activity relative to VA), the “fold lower specific activity in comparison to VA” value was 10 fold.

B1: VanAB (vanillate demethylase; purified VanA and VanB subunits) (Pseudomonas putida KT2440) (protein)
chain: MYPKNTWYVACTPDEIATKPLGRQICGEKIVFYRARENQVAAVEDFCPHRGAPLSLGYVEDGNLVCGYHGLVMGCDGKTVSMPGQRVRGFPCNKTFAAVERYGFIWVWPGDQAQADPALIPHLEWAVSDEWAYGGGLFHIGCDYRLMIDNLMDLTHETYVHASSIGQKEIDEAPPVTTVTGDEVVTARHMENIMAPPFWRMALRGNGLADDVPVDRWQICRFTPPSHVLIEVGVAHAGKGGYHAEAQHKASSIVVDFITPESDTSIWYFWGMARNFAAHDQTLTDNIREGQGKIFSEDLEMLERQQQNLLAHPERNLLKLNIDAGGVQSRKVLERIIAQERAPQPQLIATSANPA
In the case of B1, in series [5], the Michaelis-Menten constant (Km) (usually the concentration of substrate that gives half-maximal velocity) worked out at 4.3 ± 3.1 µM and the kcat (commonly the maximal rate divided by the concentration of active sites) was 0.28 ± 0.0317 s⁻¹. For the same molecule, in series [6], the Km was found to be 113.9 ± 21.5 µM and the kcat was found to be 1.13 ± 0.0683 s⁻¹.
